Results from patent US20220363667A1 (Nippon Chemiphar Co., Ltd., priority 2018, published 2022).
Where a name gives a salt, the structure may show the parent alone.

system: SD rats; assay: Rat formalin test; format: in vivo; details: po, 30 mg/kg orally once, pain behavior time from 15 to 30 minutes after formalin administration vs vehicle group, read-out: Inhibition ratio (pain behavior inhibition ratio)
Method: 30 mg/kg of a vehicle or a test substance was orally administrated to SD rats once, and according to the method described in McNamara C. R., Mandel-Brehm J., Bautista D. M., Siemens J., Deranian K. L., Zhao M., Hayward N. J., Chong J. A., Julius D., Moran M. M., Fanger C. M.: TRPA1 mediates formalin-induced pain. Proc. Natl. Acad. Sci. U.S.A. 104, 2007, 13525-13530, 50 μL of a 2.0% formalin solution as a pain-inducing substance was subcutaneously administered under the skin of the plantar plate of the right hind limb of each rat.
Regarding the evaluation, the pain behavior inhibition ratio was determined from the pain behavior time of each test substance-administered group with respect to the pain behavior time of the vehicle-administered group for 15 minutes measured from 15 minutes to 30 minutes after the administration.

First: O=C(Cc1ccc(C2CC2)cc1)N[C@@H]1CCN(c2ccc(C(F)(F)F)nc2)C1 [Example 121, (R)-2-(4-cyclopropylphenyl)-N-(1-(6-(trifluoromethyl)pyridin-3-yl)pyrrolidin-3-yl)acetamide]
Second: CC(C)c1ccc(CC(=O)N[C@@H]2CCN(c3ccc(C(F)(F)F)nc3)C2)cc1 [Example 113, (R)-2-(4-isopropylphenyl)-N-(1-(6-(trifluoromethyl)pyridin-3-yl)pyrrolidin-3-yl)acetamide]
The inhibition in vivo at 30 mg/kg of the first is lower: < 10% for the first, 10 to 20% for the second.

Compared with `COC(=O)C1(NC(=O)Cc2ccc3cc[nH]c3c2)CCN(c2cncc(C(F)(F)F)c2)C1` (stereo not shown) [Example 37, Methyl 3-(2-(1H-indol-6-yl)acetamido)-1-(5-(trifluoromethyl)pyridin-3-yl)pyrrolidine-3-carboxylate], `O=C(Cc1ccc2cc[nH]c2c1)N[C@@H]1CCN(c2cncc(C(F)(F)F)c2)C1` [Example 124, (R)-2-(1H-indol-6-yl)-N-(1-(5-(trifluoromethyl)pyridin-3-yl)pyrrolidin-3-yl)acetamide] is higher in inhibition in vivo at 30 mg/kg: < 10% for the first, ≥ 20% for the second.

`N#Cc1ncc(N2CC[C@@H](NC(=O)Cc3ccc(C4CC4)cc3)C2)cc1C(F)(F)F` [Example 12, (R)—N-(1-(6-cyano-5-(trifluoromethyl)pyridin-3-yl)pyrrolidin-3-yl)-2-(4-cyclopropylphenyl)acetamide] and `COc1ncc(N2CC[C@@H](NC(=O)Cc3ccc(C(C)C)cc3)C2)cc1C(F)(F)F` [Example 110, (R)-2-(4-isopropylphenyl)-N-(1-(6-methoxy-5-(trifluoromethyl)pyridin-3-yl)pyrrolidin-3-yl)acetamide] cannot be ordered by inhibition in vivo at 30 mg/kg: 10 to 20% for the first, ≥ 20% for the second.

`CC(C)c1ccc(CC(=O)NC2CN(c3cncc(C(F)(F)F)c3)C2)cc1` [Example 117, 2-(4-Isopropylphenyl)-N-(1-(5-(trifluoromethyl)pyridin-3-yl)azetidin-3-yl)acetamide] and `CC(C)c1ccc(CC(=O)NC2CCN(c3cncc(C(F)(F)F)c3)CC2)cc1` [Example 109, 2-(4-Isopropylphenyl)-N-(1-(5-(trifluoromethyl)pyridin-3-yl)piperidin-4-yl)acetamide] cannot be ordered by inhibition in vivo at 30 mg/kg: ≥ 20% for the first, ≥ 20% for the second.

`O=C(N[C@@H]1CCN(c2cnc(C(F)(F)F)nc2)C1)[C@H]1C[C@@H]1c1nc2ccccc2[nH]1` [Example 70, (1S,2S)-2-(1H-benzo[d]imidazol-2-yl)-N—((R)-1-(2-(trifluoromethyl)pyrimidin-5-yl)pyrrolidin-3-yl)cyclopropane-1-carboxyamide] and `O=C(N[C@@H]1CCN(c2ccc(C(F)(F)F)nc2)C1)[C@H]1C[C@@H]1c1nc2ccccc2[nH]1` [Example 54, (1S,2S)-2-(1H-benzo[d]imidazol-2-yl)-N—((R)-1-(6-(trifluoromethyl)pyridin-3-yl)pyrrolidin-3-yl)cyclopropane-1-carboxyamide] cannot be ordered by inhibition in vivo at 30 mg/kg: < 10% for the first, < 10% for the second.

First: O=C(Cc1ccc(N2CCOCC2)cc1)N[C@@H]1CCN(c2cncc(C(F)(F)F)c2)C1 [Example 181, (R)-2-(4-morpholinophenyl)-N-(1-(5-(trifluoromethyl)pyridin-3-yl)pyrrolidin-3-yl)acetamide]
Second: O=C(Cc1ccc(N2CCS(=O)(=O)CC2)cc1)N[C@@H]1CCN(c2cncc(C(F)(F)F)c2)C1 [Example 23, (R)-2-(4-(1,1-dioxidethiomorpholino)phenyl)-N-(1-(5-(trifluoromethyl)pyridin-3-yl)pyrrolidin-3-yl)acetamide]
The inhibition in vivo at 30 mg/kg of the first is higher: ≥ 20% for the first, < 10% for the second.

First: N#CC1(NC(=O)Cc2ccc(C3CC3)cc2)CCN(c2cncc(C(F)(F)F)c2)C1 (stereo not shown) [Example 36, N-(3-cyano-1-(5-(trifluoromethyl)pyridin-3-yl)pyrrolidin-3-yl)-2-(4-cyclopropylphenyl)acetamide]
Second: NC(C(=O)N[C@@H]1CCN(c2cncc(C(F)(F)F)c2)C1)c1ccc(C2CC2)cc1 (stereo partly drawn) [Example 137, 2-amino-2-(4-cyclopropylphenyl)-N—((R)-1-(5-(trifluoromethyl)pyridin-3-yl)pyrrolidin-3-yl)acetamide]
The inhibition in vivo at 30 mg/kg of the first is lower: < 10% for the first, ≥ 20% for the second.

`O=C(N[C@@H]1CCN(c2cncc(C(F)(F)F)c2)C1)[C@H]1C[C@@H]1c1nc2cc(F)ccc2o1` [Example 49, (1S,2S)-2-(5-fluorobenzo[d]oxazol-2-yl)-N—((R)-1-(5-(trifluoromethyl)pyridin-3-yl)pyrrolidin-3-yl)cyclopropane-1-carboxyamide] and `O=C(N[C@@H]1CCN(c2cncc(C(F)(F)F)c2)C1)[C@H]1C[C@@H]1c1nc2ccccc2o1` [Example 39, (1S,2S)-2-(benzo[d]oxazol-2-yl)-N—((R)-1-(5-(trifluoromethyl)pyridin-3-yl)pyrrolidin-3-yl)cyclopropane-1-carboxyamide] cannot be ordered by inhibition in vivo at 30 mg/kg: ≥ 20% for the first, ≥ 20% for the second.

Compared with `O=C(Cc1ccc(C(F)(F)F)cc1)N[C@@H]1CCN(c2cncc(C(F)(F)F)n2)C1` [Example 11, (R)-2-(4-(trifluoromethyl)phenyl)-N-(1-(6-(trifluoromethyl)pyrazin-2-yl)pyrrolidin-3-yl)acetamide], `CC(C)(O)c1ccc(CC(=O)N[C@@H]2CCN(c3cncc(C(F)(F)F)c3)C2)cc1` [Example 131, (R)-2-(4-(2-hydroxypropan-2-yl)phenyl)-N-(1-(5-(trifluoromethyl)pyridin-3-yl)pyrrolidin-3-yl)acetamide] is lower in inhibition in vivo at 30 mg/kg: ≥ 20% for the first, < 10% for the second.

`O=C(N[C@@H]1CCN(c2cncc(C(F)(F)F)c2)C1)[C@H]1C[C@@H]1c1nc2ccccc2[nH]1` [Example 71, (1S,2S)-2-(1H-benzo[d]imidazol-2-yl)-N—((R)-1-(5-(trifluoromethyl)pyridin-3-yl)pyrrolidin-3-yl)cyclopropane-1-carboxyamide] and `O=C(N[C@@H]1CCN(c2cncc(C(F)(F)F)c2)C1)C1CC1c1cc(Cl)cc(Cl)c1` (single isomer, unassigned) [Example 99A] cannot be ordered by inhibition in vivo at 30 mg/kg: < 10% for the first, < 10% for the second.

`O=C(Cc1ccc(C(F)(F)F)cc1F)N[C@@H]1CCN(c2cncc(C(F)(F)F)c2)C1` [Example 141, (R)-2-(2-fluoro-4-(trifluoromethyl)phenyl)-N-(1-(5-(trifluoromethyl)pyridin-3-yl)pyrrolidin-3-yl)acetamide] and `O=C(Cc1ccc2cccnc2c1)N[C@@H]1CCN(c2cncc(C(F)(F)F)c2)C1` [Example 79, (R)-2-(quinolin-7-yl)-N-(1-(5-(trifluoromethyl)pyridin-3-yl)pyrrolidin-3-yl)acetamide hydrochloride] cannot be ordered by inhibition in vivo at 30 mg/kg: < 10% for the first, < 10% for the second.

Compared with `CC(C)c1ccc(CC(=O)N[C@@H]2CCN(c3nc(C(F)(F)F)cs3)C2)cc1` [Example 112, (R)-2-(4-isopropylphenyl)-N-(1-(4-(trifluoromethyl)thiazol-2-yl)pyrrolidin-3-yl)acetamide], `O=C(Cc1ccc2cc[nH]c2c1)N[C@@H]1CCN(c2ccc(C(F)(F)F)nc2)C1` [Example 85, (R)-2-(1H-indol-6-yl)-N-(1-(6-(trifluoromethyl)pyridin-3-yl)pyrrolidin-3-yl)acetamide] is lower in inhibition in vivo at 30 mg/kg: ≥ 20% for the first, < 10% for the second.

With `O=C(Cc1ccc(N2CCC(F)(F)C2)cc1)N[C@@H]1CCN(c2ccc(C(F)(F)F)nc2)C1` [Example 84, (R)-2-(4-(3,3-difluoropyrrolidin-1-yl)phenyl)-N-(1-(6-(trifluoromethyl)pyridin-3-yl)pyrrolidin-3-yl)acetamide] the inhibition in vivo at 30 mg/kg was < 10%.
